Among the test systems are HOP-92 NSCLC; RXF 393 renal; HOP-62 NSCLC; RPMI-8226 leukemia; TK-10 renal; SF-295 CNS; OVCAR-5 ovarian; LOX IMVI melanoma; NCI-H522 lung; SR leukemia.
Assay in all cases: inhibition of tumour cell growth, NCI panel, 48 h

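Cultured in 96-well plates, cells were exposed to test compound for 48 hours across five concentrations. GI50 is the concentration that inhibits growth by half. TGI is the concentration that stops growth completely.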

Results on 20 compounds are retold here after PubChem BioAssay (NCI).

Regarding `CN(CCc1ccccn1)c1nc(=[N+](C)C)ss1`, the TGI in the assay on HOP-92 NSCLC, in the assay on RXF 393 renal, in the assay with HOP-62 NSCLC, in the assay with RPMI-8226 leukemia, with TK-10 renal and in the assay on SF-295 CNS was over 100 µM each time. For the same compound, the TGI with OVCAR-5 ovarian, in the assay with LOX IMVI melanoma and in the assay with NCI-H522 lung was over 100 µM each time.
For the compound `O=C(O)/C(Cl)=C(\Cl)C(=O)NC1C2CC3CC(C2)CC1C3` (stereo not drawn), the TGI in the assay with HOP-92 NSCLC, in the assay with HOP-62 NSCLC, in the assay on RPMI-8226 leukemia, with SR leukemia, with SF-295 CNS and with OVCAR-5 ovarian was over 100 µM throughout. Also, the TGI in the assay on LOX IMVI melanoma and in the assay with NCI-H522 lung was over 100 µM each time.
Consider `CN(C)CCNC(=O)c1cccc2c(Nc3ccc(S(N)(=O)=O)cc3)c3ccccc3nc12`, for which the TGI with HOP-92 NSCLC is 7.27 µM; in the assay on HOP-62 NSCLC, 11.6 µM; in the assay on RPMI-8226 leukemia, 77.2 µM; in the assay on SR leukemia it was over 100 µM; with SF-295 CNS, 8.02 µM; in the assay with OVCAR-5 ovarian it was 6.56 µM. In addition, the figures for the TGI with LOX IMVI melanoma and in the assay with NCI-H522 lung were 2.59 µM and 2.8 µM, respectively.
`Clc1ccc(C2=Nn3c(nnc3-c3cc(Cl)cc(Cl)c3Cl)SC2)cc1`: the GI50 with HOP-92 NSCLC was 19.6 µM; in the assay on HOP-62 NSCLC, 14.5 µM; in the assay with RPMI-8226 leukemia it was 44.3 µM; in the assay on SR leukemia it was 3.1 µM; with TK-10 renal it was 15.9 µM; in the assay on SF-295 CNS it was 11 µM. Moreover, the results for the GI50 in the assay with OVCAR-5 ovarian, in the assay with LOX IMVI melanoma and in the assay on NCI-H522 lung were 36.7 µM, 27.1 µM and 12.7 µM, respectively. In addition, the TGI with HOP-92 NSCLC was 65 µM; in the assay on HOP-62 NSCLC, 32.5 µM; with RPMI-8226 leukemia it was over 100 µM; in the assay with SR leukemia, 7.34 µM; with TK-10 renal, 35.9 µM; in the assay on SF-295 CNS it was 29.3 µM. Besides, the TGI in the assay on OVCAR-5 ovarian was over 100 µM; in the assay with LOX IMVI melanoma, over 100 µM; in the assay on NCI-H522 lung, 46.2 µM.
Consider `Cc1ccc(NC(=O)C(=O)CC(=O)C2CCOC2=O)c(C)c1` (stereo not drawn), for which the TGI in the assay with HOP-92 NSCLC, in the assay with RXF 393 renal, in the assay with HOP-62 NSCLC, in the assay on RPMI-8226 leukemia, in the assay on TK-10 renal and in the assay with SF-295 CNS was over 100 µM in each case. For the same compound, the TGI with OVCAR-5 ovarian, in the assay on LOX IMVI melanoma and in the assay with NCI-H522 lung was over 100 µM each time.
Turning to `CCCCCCCCCCCCCCCC[N+](C)(CCO)Cc1cnc[nH]1` (stereo not drawn), the GI50 with HOP-92 NSCLC was 0.922 µM; in the assay on HOP-62 NSCLC, 0.456 µM; in the assay with SR leukemia, 1.97 µM; with SF-295 CNS it was 1.18 µM. The TGI with HOP-92 NSCLC is 3.82 µM; in the assay with HOP-62 NSCLC, 1.68 µM; in the assay on SR leukemia, over 100 µM; with SF-295 CNS it was 4.01 µM.
On to `O=C(CC1(O)C(=O)Nc2ccccc21)c1ccco1` (stereo not drawn), for which the TGI in the assay on HOP-92 NSCLC, in the assay on RXF 393 renal, in the assay on HOP-62 NSCLC, with RPMI-8226 leukemia, in the assay on TK-10 renal and with SF-295 CNS was over 100 µM in each case. In addition, the TGI with OVCAR-5 ovarian, in the assay on LOX IMVI melanoma and with NCI-H522 lung was over 100 µM in each case.
As for `COC(=O)c1c(O)c([N+](=O)[O-])cc2c1c1c(n2Cc2ccccc2)C(=O)c2ccccc2C1=O`, the GI50 was 8.08 µM in the assay on HOP-92 NSCLC; 12.3 µM in the assay with RXF 393 renal; 21.3 µM in the assay with HOP-62 NSCLC; 2.32 µM with RPMI-8226 leukemia; 18.7 µM in the assay with TK-10 renal; 52.1 µM in the assay on SF-295 CNS. Also, the results for the GI50 in the assay with OVCAR-5 ovarian, in the assay with LOX IMVI melanoma and with NCI-H522 lung were 28.6 µM, over 100 µM and 23.3 µM, respectively. Moreover, the TGI with HOP-92 NSCLC was 63 µM; in the assay with RXF 393 renal it was 61.9 µM; in the assay on HOP-62 NSCLC, 49.8 µM; with RPMI-8226 leukemia it was 24.9 µM; in the assay with TK-10 renal, over 100 µM; in the assay with SF-295 CNS it was over 100 µM. In addition, the TGI with OVCAR-5 ovarian was 66.7 µM; in the assay on LOX IMVI melanoma, over 100 µM; in the assay with NCI-H522 lung, 65.6 µM.
On to `CC1(C)OB(O)OC1(C)C`, for which the TGI in the assay on RXF 393 renal, with HOP-62 NSCLC, in the assay on RPMI-8226 leukemia, in the assay with TK-10 renal, with SF-295 CNS and in the assay with OVCAR-5 ovarian was over 100 µM each time. In addition, the TGI in the assay on LOX IMVI melanoma and with NCI-H522 lung was over 100 µM in each case.
With `COC(=O)NC1(NC(=O)OC)NC(=O)c2cc(OC)c(OC)c(OC)c2N1`, the TGI in the assay on HOP-62 NSCLC is over 100 µM; in the assay with SR leukemia, over 100 µM; in the assay with TK-10 renal, over 100 µM; in the assay on SF-295 CNS, over 100 µM; with OVCAR-5 ovarian, over 100 µM; in the assay with NCI-H522 lung, 41.5 µM.
For the compound `O=c1cc(-c2ccccc2)oc2cc(O)cc(O)c12`, the TGI is 38.7 µM with HOP-92 NSCLC; over 100 µM in the assay with HOP-62 NSCLC; 41.7 µM in the assay on RPMI-8226 leukemia; 65.6 µM with SR leukemia; 72.9 µM in the assay with TK-10 renal; 37.6 µM in the assay with SF-295 CNS. The values for the TGI in the assay on OVCAR-5 ovarian, in the assay on LOX IMVI melanoma and with NCI-H522 lung were 37.4 µM, 46.8 µM and 33 µM, respectively.
Take `CC1=C(C(=O)Nc2cc(=O)n(C)c(=O)n2C)C(c2ccc([N+](=O)[O-])cc2)C(C(=O)Nc2cc(=O)n(C)c(=O)n2C)=C(C)N1`: the TGI with HOP-92 NSCLC was 85.7 µM; in the assay on RXF 393 renal, over 100 µM; in the assay with HOP-62 NSCLC it was over 100 µM; with RPMI-8226 leukemia, over 100 µM; in the assay with TK-10 renal it was over 100 µM; in the assay on SF-295 CNS it was over 100 µM. Further, the TGI with OVCAR-5 ovarian, with LOX IMVI melanoma and with NCI-H522 lung was over 100 µM in each case.
Regarding `O=C(/C=N/O)Nc1cc(Cl)c(Cl)cc1Cl`, the TGI in the assay with HOP-92 NSCLC was over 100 µM; with RXF 393 renal, 95.3 µM; in the assay on HOP-62 NSCLC it was over 100 µM; in the assay on RPMI-8226 leukemia, 88.8 µM; in the assay on TK-10 renal, over 100 µM; in the assay with SF-295 CNS it was 87.6 µM. In addition, the TGI with OVCAR-5 ovarian was over 100 µM; in the assay on LOX IMVI melanoma it was over 100 µM; with NCI-H522 lung it was 67.8 µM.
`CC(=O)OC1CC2Oc3ccc(C)cc3C(C)(O2)C1=O` (stereo not drawn): the TGI with RXF 393 renal, in the assay with HOP-62 NSCLC, with RPMI-8226 leukemia, in the assay on TK-10 renal, in the assay on SF-295 CNS and in the assay with LOX IMVI melanoma was over 100 µM throughout. In addition, the TGI with NCI-H522 lung was over 100 µM.
For `O=C(Cc1nc2ccccc2s1)C(=O)Nc1cccc(Cl)c1`, the TGI in the assay on HOP-92 NSCLC, in the assay with RXF 393 renal, in the assay with HOP-62 NSCLC, with RPMI-8226 leukemia, with TK-10 renal and with SF-295 CNS was over 100 µM in each case. In addition, the TGI in the assay with OVCAR-5 ovarian, in the assay with LOX IMVI melanoma and in the assay with NCI-H522 lung was over 100 µM in each case.
Consider `Cc1ccc(C(=O)Nc2ccc(S(=O)(=O)O)c3cc(S(=O)(=O)O)cc(S(=O)(=O)O)c23)cc1NC(=S)Nc1cc(C(=O)Nc2ccc(S(=O)(=O)O)c3cc(S(=O)(=O)O)cc(S(=O)(=O)O)c23)ccc1C`, for which the TGI in the assay on HOP-62 NSCLC, with RPMI-8226 leukemia, in the assay with SR leukemia, in the assay on TK-10 renal, with OVCAR-5 ovarian and in the assay on LOX IMVI melanoma was over 75 µM each time. The compound further registered a TGI in the assay with NCI-H522 lung of over 75 µM.
Consider `OC(COc1ccc(F)cc1)Cn1cnc2c(Cl)ncnc21` (stereo not drawn), for which the GI50 in the assay on HOP-92 NSCLC is over 100 µM; in the assay on RXF 393 renal, 1.78 µM; with HOP-62 NSCLC it was over 100 µM; in the assay on RPMI-8226 leukemia, 39.7 µM; in the assay with TK-10 renal it was 63.3 µM; in the assay on SF-295 CNS, over 100 µM. The results for the GI50 in the assay with OVCAR-5 ovarian, in the assay on LOX IMVI melanoma and in the assay on NCI-H522 lung were over 100 µM, 39.1 µM and over 100 µM, respectively. Also, the TGI was over 100 µM with HOP-92 NSCLC; 44.4 µM with RXF 393 renal; over 100 µM in the assay with HOP-62 NSCLC; over 100 µM in the assay with RPMI-8226 leukemia; over 100 µM in the assay with TK-10 renal; over 100 µM with SF-295 CNS. Besides, the TGI in the assay with OVCAR-5 ovarian, in the assay with LOX IMVI melanoma and in the assay on NCI-H522 lung was over 100 µM each time.
For `CN(/N=C/c1cccc2cccnc12)c1ccc([N+](=O)[O-])cc1`, the TGI in the assay with HOP-92 NSCLC, in the assay on RXF 393 renal, in the assay with HOP-62 NSCLC, in the assay with RPMI-8226 leukemia, in the assay on TK-10 renal and in the assay with SF-295 CNS was over 100 µM in each case. Moreover, the TGI in the assay on OVCAR-5 ovarian and in the assay with LOX IMVI melanoma was over 100 µM each time.
In the case of `CS(=O)(=O)Nc1cccc(-c2cc(-c3ccccc3Cl)c(C#N)c(N)n2)c1`, the GI50 in the assay on HOP-92 NSCLC is 1.11 µM; with RXF 393 renal, 0.328 µM; in the assay with HOP-62 NSCLC, 0.558 µM; with RPMI-8226 leukemia it was 0.702 µM; in the assay with TK-10 renal, 1.15 µM; in the assay with SF-295 CNS it was 0.411 µM. Also, the GI50 with OVCAR-5 ovarian was 3.22 µM; with LOX IMVI melanoma, 0.531 µM; in the assay with NCI-H522 lung, 0.294 µM. The TGI with HOP-92 NSCLC worked out at 16 µM; in the assay on RXF 393 renal it was 2.27 µM; with HOP-62 NSCLC, 16.6 µM; in the assay with RPMI-8226 leukemia it was 27.5 µM; with TK-10 renal, 18.5 µM; in the assay on SF-295 CNS, 12.9 µM. Also, the TGI was 19.9 µM in the assay with OVCAR-5 ovarian, 17.4 µM in the assay with LOX IMVI melanoma and 3.89 µM in the assay with NCI-H522 lung.
Consider `NC(=O)c1coc(C2OC(CO)C(O)C2O)n1` (stereo not drawn), for which the TGI with HOP-92 NSCLC, in the assay on HOP-62 NSCLC, with RPMI-8226 leukemia, in the assay on SR leukemia, with TK-10 renal and in the assay with OVCAR-5 ovarian was over 100 µM each time. For the same compound, the TGI in the assay on LOX IMVI melanoma and in the assay on NCI-H522 lung was over 100 µM each time.
